# Laboratory results: patent publication US20250313547A1, “CEREBLON LIGANDS AND BIFUNCTIONAL COMPOUNDS COMPRISING THE SAME” (Arvinas Operations, Inc., priority 2017, published 2025)
# pKd: −log10 of the molar value.
# Target: immobilized CRBN protein (cereblon) (Homo sapiens (Human), UniProt Q96SW2)
# Assay: Surface plasmon resonance (SPR) KD determination on immobilized cereblon
# Settings: average of at least N=2, 1:1 fit, read-out: KD Binding to immobilized CRBN protein in SPR assay
# Description: The surface plasmon resonance (SPR) experiments were conducted on a Biacore3000 (GE Healthcare). Myc-tagged cereblon was immobilized on a carboxymethylated dextran surface (CM5) amine coupled to anti-Myc antibody to recognize the Myc tag. His-tagged cereblon protein was immobilized on a carboxymethylated dextran surface with nitriloacetic acid (NTA), taking advantage of NTA/Ni^2+ chelation. The prepared surface was allowed to equilibrate over three hours in running buffer (10 mM HEPES buffer @pH 7.4, 150 mM NaCl, 0.005% P20,2% DMSO).
# All compounds were prepared in 100% DMSO stock plates with a top concentration of 5 mM in a 3× serial dilution. Compounds were transferred from the stock plate to the assay plate and diluted into running buffer containing no DMSO. All compounds were run as a six-concentration series with a final assay top concentration of 100 μM.
# Data analysis was performed in Scrubber 2 (BioLogic software, Campbell, Australia). Blanks were subtracted and data was corrected for DMSO against a standard DMSO curve.
# Sequence of immobilized CRBN protein (cereblon) (Q96SW2 whole entry): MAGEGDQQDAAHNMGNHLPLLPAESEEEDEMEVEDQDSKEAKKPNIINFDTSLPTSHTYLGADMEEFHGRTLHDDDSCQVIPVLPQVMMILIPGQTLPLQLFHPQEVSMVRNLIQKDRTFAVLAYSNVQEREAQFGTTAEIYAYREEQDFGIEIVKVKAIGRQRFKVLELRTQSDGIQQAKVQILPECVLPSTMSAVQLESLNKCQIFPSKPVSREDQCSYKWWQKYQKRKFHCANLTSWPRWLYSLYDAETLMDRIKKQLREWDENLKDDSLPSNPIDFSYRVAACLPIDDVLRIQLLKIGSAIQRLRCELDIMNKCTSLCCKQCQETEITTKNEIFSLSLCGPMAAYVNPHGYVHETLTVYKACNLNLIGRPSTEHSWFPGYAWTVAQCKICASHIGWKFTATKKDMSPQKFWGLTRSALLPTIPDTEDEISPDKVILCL
row,Compound,pKd
1,O=C1CCC(N2C(=O)c3ccccc3C2=O)C2(COC2)N1 (centres unmarked) [compound 14],< 4.00
2,CCOc1ccn(C2CCC(=O)NC2=O)c(=O)c1 (centres unmarked) [compound 31],< 4.00
3,O=C1CCC(N2C(=O)c3cc(F)c(NCCCCCCO)cc3C2=O)C(=O)N1 (centres unmarked) [compound 3],4.00 to 5.00
4,CCOc1cnn(C2CCC(=O)NC2=O)c(=O)c1 (centres unmarked) [compound 30],5.00 to 6.00
5,Cc1cn(-c2cccnc2)c(=O)[nH]c1=O [compound 39],< 4.00
6,CC1(C)C(=O)NC(=O)N1C1CC2CCCCN2C1=O (centres unmarked) [compound 22],< 4.00
7,Cn1cc(N2C(=O)c3ccccc3C2=O)c(=O)[nH]c1=O [compound 21],< 4.00
8,CNc1ccccc1C(=O)NCCN1C(=O)CCNC1=O [compound 11],< 4.00
9,O=c1ccn(-c2cccnc2)c(=O)[nH]1 [compound 40],4.00 to 5.00
10,O=C1CCC(N2Cc3cc(NCCCCCCO)c(F)cc3C2=O)C(=O)N1 (centres unmarked) [compound 5],4.00 to 5.00
11,O=c1ccn(-c2cnc3ccccc3c2)c(=O)[nH]1 [compound 33],< 4.00
12,O=C1c2ccccc2C(=O)N1c1c[nH]c(=O)[nH]c1=O [compound 26],< 4.00
13,O=C1NCC(N2C(=O)c3ccccc3C2=O)C(=O)N1 (centres unmarked) [compound 25],< 4.00
14,CN1CC(N2C(=O)c3ccccc3C2=O)C(=O)NC1=O (centres unmarked) [compound 18],< 4.00
15,Cc1cc(C#N)[nH]c(=O)c1N1C(=O)c2ccccc2C1=O [compound 43],4.00 to 5.00
16,NC(=O)c1ccc(N2C(=O)c3ccccc3C2=O)c(=O)[nH]1 [compound 42],< 4.00
17,O=C1CN(C2Cc3ccccc3C2=O)C(=O)N1 (centres unmarked) [compound 35],< 4.00
18,CCOc1cnn(C2CCC(=O)NC2=O)c(=O)c1Cl (centres unmarked) [compound 15],< 4.00
19,CCOc1cc(=O)n(C2CCC(=O)NC2=O)cn1 (centres unmarked) [compound 29],4.00 to 5.00
20,N#Cc1cn(-c2cccnc2)c(=O)[nH]c1=O [compound 38],< 4.00
21,O=C1CCC(N2Cc3c(ccc(F)c3OCCCCCCO)C2=O)C(=O)N1 (centres unmarked) [compound 4],4.00 to 5.00

row,Compound,pKd
1,Cc1cc(C(N)=O)[nH]c(=O)c1N1C(=O)c2ccccc2C1=O [compound 41],< 4.00
2,O=C1c2ccccc2C(=O)N1CCn1ccc(=O)[nH]c1=O [compound 16],< 4.00
3,N#Cc1cn(-c2cnc3ccccc3c2)c(=O)[nH]c1=O [compound 23],4.00 to 5.00
4,O=c1ccn(-c2cncc3ccccc23)c(=O)[nH]1 [compound 34],4.00 to 5.00
5,N#Cc1ccc(N2C(=O)c3ccccc3C2=O)c(=O)[nH]1 [compound 44],4.00 to 5.00
6,CNc1ccccc1C(=O)NCCn1ccc(=O)[nH]c1=O [compound 12],< 4.00
7,O=C1NC(C(F)(F)F)CCC1N1C(=O)c2cccc(F)c2C1=O (centres unmarked) [compound 6],< 4.00
8,O=c1ccn([C@H]2C[C@H](O)[C@@H](CO)O2)c(=O)[nH]1 [compound 37],< 4.00
9,O=C1CCN(c2cncc3ccccc23)C(=O)N1 [compound 32],5.00 to 6.00
10,O=C1CCC(N2C(=O)c3ccc(F)cc3C2=O)C(=O)N1 (centres unmarked) [compound 17],< 4.00
11,O=CN1CCC(N2C(=O)c3ccccc3C2=O)C(=O)N1 (centres unmarked) [compound 19],< 4.00
12,Cc1c(-n2ccc(=O)[nH]c2=O)cnc2ccccc12 [compound 28],4.00 to 5.00
13,O=C1c2cccc(F)c2C(=O)N1c1ccc(C(F)(F)F)[nH]c1=O [compound 7],< 4.00
14,O=C1CCC(N2C(=O)c3c(F)ccc(F)c3C2=O)C(=O)N1 (centres unmarked) [compound 8],< 4.00
15,O=C1NC(=O)C(N2C(=O)c3cccc(F)c3C2=O)N1 (centres unmarked) [compound 24],< 4.00
16,CNc1ccccc1C(=O)NCCN1CCC(=O)NC1=O [compound 10],< 4.00
17,Cc1c(N2CCC(=O)NC2=O)cnc2ccccc12 [compound 27],< 4.00
18,Cc1ccncc1-n1cc(C#N)c(=O)[nH]c1=O [compound 36],< 4.00
19,O=C1CCC(N2Cc3ccccc3C2=O)C2(COC2)N1 (centres unmarked) [compound 20],< 4.00
20,O=C1CCC(N2C(=O)c3ccc(F)c(F)c3C2=O)C(=O)N1 (centres unmarked) [compound 9],5.00 to 6.00

# System: androgen receptor (AR)
# Assay: AR ELISA assay (androgen receptor degradation)
# Format: cell-based
# Settings: % degraded; LNCaP and/or VCaP cells, 5 hours drug treatment
# Procedure, shortened: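 VCaP cells (LNCaP in some cases) grown at least 3 days in phenol red-free RPMI with 5% charcoal-stripped FBS, then treated with PROTACs in 0.01% DMSO for 5 h. AR level in lysates measured by sandwich ELISA, TMB read at 450 nm.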
row,Compound,AR Dmax
1,"CC1(C)[C@H](NC(=O)c2ccc(N3CCN(CCCCCOc4ccc5c(c4)C(=O)N(c4ccc(C#N)[nH]c4=O)C5=O)CC3)nc2)C(C)(C)[C@H]1Oc1ccc(C#N)c(Cl)c1 [PROTAC-42, N-((1r,3r)-3-(3-chloro-4-cyanophenoxy)-2,2,4,4-tetramethylcyclobutyl)-6-(4-(5-((2-(6-cyano-2-oxo-1,2-dihydropyridin-3-yl)-1,3-dioxoisoindolin-5-yl)oxy)pentyl)piperazin-1-yl)nicotinamide]",C (C <= 50)
2,"CC1(C)[C@H](NC(=O)c2ccc(N3CCN(CCCCCOc4ccc5ncc(-n6cc(C#N)c(=O)[nH]c6=O)cc5c4)CC3)nc2)C(C)(C)[C@H]1Oc1ccc(C#N)c(Cl)c1 [PROTAC-80, N-((1r,3r)-3-(3-chloro-4-cyanophenoxy)-2,2,4,4-tetramethylcyclobutyl)-6-(4-(5-((3-(5-cyano-2,4-dioxo-3,4-dihydropyrimidin-1(2H)-yl)quinolin-6-yl)oxy)pentyl)piperazin-1-yl)nicotinamide]",C (C <= 50)
3,"Cn1c(-c2cccc(N3CCN(CC4CCN(c5ccc(C(=O)N[C@H]6C(C)(C)[C@H](Oc7ccc(C#N)c(Cl)c7)C6(C)C)cc5)CC4)CC3)c2)nn(C2CCC(=O)NC2=O)c1=O (mixture of isomers) [PROTAC-68, rac-N-((1r,3r)-3-(3-chloro-4-cyanophenoxy)-2,2,4,4-tetramethylcyclobutyl)-4-(4-((4-(3-(1-(2,6-dioxopiperidin-3-yl)-4-methyl-5-oxo-4,5-dihydro-1H-1,2,4-triazol-3-yl)phenyl)piperazin-1-yl)methyl)piperidin-1-yl)benzamide]",A (A > 75)
4,"CC1(C)[C@H](NC(=O)c2ccc(N3CCC(CN4CCN(c5ccc(C(=O)NC6CCC(=O)NC6=O)nc5)CC4)CC3)nc2)C(C)(C)[C@H]1Oc1ccc(C#N)c(Cl)c1 (some centres unmarked) [PROTAC-53, 5-(4-((1-(5-(((1r,3r)-3-(3-chloro-4-cyanophenoxy)-2,2,4,4-tetramethylcyclobutyl)carbamoyl)pyridin-2-yl)piperidin-4-yl)methyl)piperazin-1-yl)-N-(2,6-dioxopiperidin-3-yl)picolinamide]",A (A > 75)
5,"CC1(C)[C@H](NC(=O)c2ccc(N3CCC(CN4CCN(c5ccc6c(c5)C(=O)N(c5ccc[nH]c5=O)C6=O)CC4)CC3)cc2)C(C)(C)[C@H]1Oc1ccc(C#N)c(Cl)c1 [PROTAC-44, rac-N-((1r,3r)-3-(3-chloro-4-cyanophenoxy)-2,2,4,4-tetramethylcyclobutyl)-4-(4-((4-(1,3-dioxo-2-(2-oxo-1,2-dihydropyridin-3-yl)isoindolin-5-yl)piperazin-1-yl)methyl)piperidin-1-yl)benzamide]",C (C <= 50)
6,"CC1(C)[C@H](NC(=O)c2ccc(N3CCN(CCCOc4cnn(C5CCC(=O)NC5=O)c(=O)c4)CC3)nc2)C(C)(C)[C@H]1Oc1ccc(C#N)c(Cl)c1 (mixture of isomers) [PROTAC-60, rac-N-((1r,3r)-3-(3-chloro-4-cyanophenoxy)-2,2,4,4-tetramethylcyclobutyl)-6-(4-(3-((1-(2,6-dioxopiperidin-3-yl)-6-oxo-1,6-dihydropyridazin-4-yl)oxy)propyl)piperazin-1-yl)nicotinamide]",C (C <= 50)

# Same assay, conditions: LNCaP and/or VCaP cells, 5 hours drug treatment
row,Compound,DC50 [µM]
1,"CC1(C)[C@H](NC(=O)c2ccc(N3CCN(CCCCCOc4ccc5c(c4)C(=O)N(c4ccc(C#N)[nH]c4=O)C5=O)CC3)nc2)C(C)(C)[C@H]1Oc1ccc(C#N)c(Cl)c1 [PROTAC-42, N-((1r,3r)-3-(3-chloro-4-cyanophenoxy)-2,2,4,4-tetramethylcyclobutyl)-6-(4-(5-((2-(6-cyano-2-oxo-1,2-dihydropyridin-3-yl)-1,3-dioxoisoindolin-5-yl)oxy)pentyl)piperazin-1-yl)nicotinamide]",0.01 to 0.1
2,"CC1(C)[C@H](NC(=O)c2ccc(N3CCN(CCCCCOc4ccc5ncc(-n6cc(C#N)c(=O)[nH]c6=O)cc5c4)CC3)nc2)C(C)(C)[C@H]1Oc1ccc(C#N)c(Cl)c1 [PROTAC-80, N-((1r,3r)-3-(3-chloro-4-cyanophenoxy)-2,2,4,4-tetramethylcyclobutyl)-6-(4-(5-((3-(5-cyano-2,4-dioxo-3,4-dihydropyrimidin-1(2H)-yl)quinolin-6-yl)oxy)pentyl)piperazin-1-yl)nicotinamide]",≥ 0.1
3,"Cn1c(-c2cccc(N3CCN(CC4CCN(c5ccc(C(=O)N[C@H]6C(C)(C)[C@H](Oc7ccc(C#N)c(Cl)c7)C6(C)C)cc5)CC4)CC3)c2)nn(C2CCC(=O)NC2=O)c1=O (mixture of isomers) [PROTAC-68, rac-N-((1r,3r)-3-(3-chloro-4-cyanophenoxy)-2,2,4,4-tetramethylcyclobutyl)-4-(4-((4-(3-(1-(2,6-dioxopiperidin-3-yl)-4-methyl-5-oxo-4,5-dihydro-1H-1,2,4-triazol-3-yl)phenyl)piperazin-1-yl)methyl)piperidin-1-yl)benzamide]",< 0.001
4,"CC1(C)[C@H](NC(=O)c2ccc(N3CCC(CN4CCN(c5ccc(C(=O)NC6CCC(=O)NC6=O)nc5)CC4)CC3)nc2)C(C)(C)[C@H]1Oc1ccc(C#N)c(Cl)c1 (some centres unmarked) [PROTAC-53, 5-(4-((1-(5-(((1r,3r)-3-(3-chloro-4-cyanophenoxy)-2,2,4,4-tetramethylcyclobutyl)carbamoyl)pyridin-2-yl)piperidin-4-yl)methyl)piperazin-1-yl)-N-(2,6-dioxopiperidin-3-yl)picolinamide]",< 0.001
5,"CC1(C)[C@H](NC(=O)c2ccc(N3CCC(CN4CCN(c5ccc6c(c5)C(=O)N(c5ccc[nH]c5=O)C6=O)CC4)CC3)cc2)C(C)(C)[C@H]1Oc1ccc(C#N)c(Cl)c1 [PROTAC-44, rac-N-((1r,3r)-3-(3-chloro-4-cyanophenoxy)-2,2,4,4-tetramethylcyclobutyl)-4-(4-((4-(1,3-dioxo-2-(2-oxo-1,2-dihydropyridin-3-yl)isoindolin-5-yl)piperazin-1-yl)methyl)piperidin-1-yl)benzamide]",≥ 0.1
6,"CC1(C)[C@H](NC(=O)c2ccc(N3CCN(CCCOc4cnn(C5CCC(=O)NC5=O)c(=O)c4)CC3)nc2)C(C)(C)[C@H]1Oc1ccc(C#N)c(Cl)c1 (mixture of isomers) [PROTAC-60, rac-N-((1r,3r)-3-(3-chloro-4-cyanophenoxy)-2,2,4,4-tetramethylcyclobutyl)-6-(4-(3-((1-(2,6-dioxopiperidin-3-yl)-6-oxo-1,6-dihydropyridazin-4-yl)oxy)propyl)piperazin-1-yl)nicotinamide]",≥ 0.1
